Earlier results, collected in patent publication US8680143B2, “Orally active curcuminoid compounds” (Laila Pharmaceuticals Pvt. Ltd., priority 2008, dated 2014).

oral bis-O-demethylcurcumin that enters the plasma: less than 1%
Structure (SMILES): O=C(C=Cc1ccc(O)c(O)c1)CC(=O)C=Cc1ccc(O)c(O)c1 [Bis-O-demethylcurcumin, 1,7-bis(3,4-dihydroxyphenyl)-1,6-heptadiene-3,5-dione]
